# According to PMC9066185 (RSC Advances, 2019):
# Molecular target: xanthine oxidase from cow's milk (XO) (Bos taurus, UniProt P80457)
# Experiment: uric acid formation at […] nm
# Format: biochemical
# Sequence of xanthine oxidase from cow's milk (XO) (P80457 2-1332): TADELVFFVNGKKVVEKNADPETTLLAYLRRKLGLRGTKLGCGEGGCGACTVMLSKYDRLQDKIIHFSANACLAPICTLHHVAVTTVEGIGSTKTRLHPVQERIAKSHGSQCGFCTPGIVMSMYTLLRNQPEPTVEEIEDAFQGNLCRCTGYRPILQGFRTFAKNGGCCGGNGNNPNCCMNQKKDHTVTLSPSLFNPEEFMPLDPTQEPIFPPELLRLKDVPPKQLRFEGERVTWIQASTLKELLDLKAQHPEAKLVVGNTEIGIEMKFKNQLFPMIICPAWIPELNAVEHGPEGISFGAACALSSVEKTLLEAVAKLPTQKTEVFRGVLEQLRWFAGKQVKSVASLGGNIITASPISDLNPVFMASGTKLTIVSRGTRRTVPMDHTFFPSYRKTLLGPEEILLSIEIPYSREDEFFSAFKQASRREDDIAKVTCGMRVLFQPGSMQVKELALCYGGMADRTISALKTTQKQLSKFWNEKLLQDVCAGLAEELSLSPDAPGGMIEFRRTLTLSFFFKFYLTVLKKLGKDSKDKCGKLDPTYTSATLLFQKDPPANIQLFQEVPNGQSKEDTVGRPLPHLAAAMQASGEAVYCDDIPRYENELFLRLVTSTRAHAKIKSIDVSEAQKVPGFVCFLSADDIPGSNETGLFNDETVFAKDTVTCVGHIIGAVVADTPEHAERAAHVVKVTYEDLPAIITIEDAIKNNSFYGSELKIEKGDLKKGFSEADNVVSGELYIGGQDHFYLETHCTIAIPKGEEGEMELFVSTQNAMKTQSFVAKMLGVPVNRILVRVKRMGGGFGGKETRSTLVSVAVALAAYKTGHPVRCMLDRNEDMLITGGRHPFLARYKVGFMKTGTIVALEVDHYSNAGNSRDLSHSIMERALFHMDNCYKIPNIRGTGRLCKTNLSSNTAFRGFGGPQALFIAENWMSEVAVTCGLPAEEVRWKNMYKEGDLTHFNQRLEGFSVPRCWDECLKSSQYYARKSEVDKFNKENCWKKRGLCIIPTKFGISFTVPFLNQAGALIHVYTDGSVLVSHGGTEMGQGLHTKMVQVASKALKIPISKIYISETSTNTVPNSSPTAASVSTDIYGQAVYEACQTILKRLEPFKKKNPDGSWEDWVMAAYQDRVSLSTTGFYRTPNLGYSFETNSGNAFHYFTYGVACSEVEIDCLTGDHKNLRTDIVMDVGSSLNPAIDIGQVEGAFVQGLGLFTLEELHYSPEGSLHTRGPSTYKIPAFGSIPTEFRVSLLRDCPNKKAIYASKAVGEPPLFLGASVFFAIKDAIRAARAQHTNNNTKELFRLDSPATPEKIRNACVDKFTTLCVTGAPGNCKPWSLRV
compound,measurement,value
"Oc1cc(O)c2c(c1)O[C@H](c1ccc(O)c(O)c1)[C@H](O)[C@H]2c1c(O)cc(O)c2c1O[C@H](c1ccc(O)c(O)c1)[C@@H](O)C2 [procyanidin B1, (−)-epicatechin-(4β,8)-(+)-catechin]",IC50,92.5 µM
